Reference: patent publication US9492471B2, “Methods of treating a disease or disorder associated with Bruton'S Tyrosine Kinase” (Celgene Avilomics Research, Inc., priority 2013, dated 2016)
Where two headings read alike, the source gives them in different places.

How the values were obtained:
Test in all cases: HotSpot kinase profiling
Assay type in all cases: biochemical
CAMK2b = molecular target: T1, CAMK2b (Homo sapiens, UniProt Q13554)
T1 construct: purchased Reaction Biology Corp
Outline: (§1)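 P81 filtration radiometric readout; 2 h incubation at room temperature; 0.1% phosphoric acid wash; DMSO negative control; % inhibition, mean of replicate runs.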

STK33 = molecular target: T2, STK33 (Homo sapiens, UniProt Q9BYT3)
T2 construct: purchased Reaction Biology Corp
T2 sequence (Q9BYT3 whole entry): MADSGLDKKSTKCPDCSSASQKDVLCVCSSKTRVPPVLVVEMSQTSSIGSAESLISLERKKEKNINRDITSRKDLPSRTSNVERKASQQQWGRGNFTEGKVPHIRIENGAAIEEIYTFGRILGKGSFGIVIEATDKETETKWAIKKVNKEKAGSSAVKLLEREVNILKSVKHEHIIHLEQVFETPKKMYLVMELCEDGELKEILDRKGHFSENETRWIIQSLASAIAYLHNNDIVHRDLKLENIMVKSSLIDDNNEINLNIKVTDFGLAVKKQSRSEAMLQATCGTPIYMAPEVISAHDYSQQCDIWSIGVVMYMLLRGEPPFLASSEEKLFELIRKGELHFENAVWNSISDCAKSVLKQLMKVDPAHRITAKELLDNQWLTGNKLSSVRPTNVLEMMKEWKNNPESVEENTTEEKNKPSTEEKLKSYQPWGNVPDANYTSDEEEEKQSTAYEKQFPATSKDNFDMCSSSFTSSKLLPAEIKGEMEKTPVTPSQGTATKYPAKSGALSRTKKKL
Outline: as §1

LYN = molecular target: T3, LYN (Homo sapiens, UniProt P07948)
T3 construct: purchased Reaction Biology Corp
T3 sequence (P07948 whole entry): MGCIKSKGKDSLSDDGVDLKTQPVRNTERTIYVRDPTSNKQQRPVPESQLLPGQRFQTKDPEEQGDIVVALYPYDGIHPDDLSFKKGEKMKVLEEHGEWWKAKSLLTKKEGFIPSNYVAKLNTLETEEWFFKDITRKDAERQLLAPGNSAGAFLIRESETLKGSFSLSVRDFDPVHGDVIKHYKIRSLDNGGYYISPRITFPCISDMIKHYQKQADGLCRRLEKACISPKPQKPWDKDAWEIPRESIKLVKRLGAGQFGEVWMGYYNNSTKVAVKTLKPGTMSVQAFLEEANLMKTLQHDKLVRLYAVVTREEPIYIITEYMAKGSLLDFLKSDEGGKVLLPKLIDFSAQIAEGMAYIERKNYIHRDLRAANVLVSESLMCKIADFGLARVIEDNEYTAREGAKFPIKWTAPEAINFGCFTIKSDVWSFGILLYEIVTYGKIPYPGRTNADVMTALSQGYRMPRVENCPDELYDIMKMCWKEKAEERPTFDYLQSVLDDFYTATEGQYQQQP
Outline: as §1

CDK2/cyclin E = molecular target: T4, CDK2/cyclin E (Homo sapiens, UniProt P24941)
T4 construct: purchased Reaction Biology Corp
Outline: as §1

DDR1 = molecular target: T5, DDR1 (Homo sapiens, UniProt Q08345)
T5 construct: purchased Reaction Biology Corp
T5 sequence (Q08345 19-913): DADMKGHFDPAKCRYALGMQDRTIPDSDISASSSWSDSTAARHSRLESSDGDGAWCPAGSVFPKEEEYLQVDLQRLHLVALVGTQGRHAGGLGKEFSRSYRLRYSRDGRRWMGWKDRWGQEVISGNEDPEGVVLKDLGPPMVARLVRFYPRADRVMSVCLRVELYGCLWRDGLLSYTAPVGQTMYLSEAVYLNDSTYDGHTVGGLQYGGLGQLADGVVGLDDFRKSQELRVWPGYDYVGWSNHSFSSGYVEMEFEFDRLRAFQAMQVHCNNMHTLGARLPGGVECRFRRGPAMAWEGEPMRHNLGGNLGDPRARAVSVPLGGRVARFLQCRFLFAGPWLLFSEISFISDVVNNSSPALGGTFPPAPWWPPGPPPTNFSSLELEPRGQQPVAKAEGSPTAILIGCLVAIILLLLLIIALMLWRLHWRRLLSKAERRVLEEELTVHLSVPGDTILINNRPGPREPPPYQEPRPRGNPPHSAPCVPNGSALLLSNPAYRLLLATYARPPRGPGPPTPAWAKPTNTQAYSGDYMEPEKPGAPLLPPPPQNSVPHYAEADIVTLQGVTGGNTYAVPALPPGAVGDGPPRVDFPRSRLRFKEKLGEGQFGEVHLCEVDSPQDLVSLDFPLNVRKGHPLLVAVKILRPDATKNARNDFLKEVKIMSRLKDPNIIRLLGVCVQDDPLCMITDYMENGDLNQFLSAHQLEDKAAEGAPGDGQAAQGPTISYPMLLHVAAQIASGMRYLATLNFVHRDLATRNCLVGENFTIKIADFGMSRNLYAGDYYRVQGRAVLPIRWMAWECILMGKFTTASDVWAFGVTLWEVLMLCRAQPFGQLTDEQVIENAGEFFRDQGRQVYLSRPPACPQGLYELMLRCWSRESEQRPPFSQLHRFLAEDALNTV
Outline: as §1

ERK7/MAPK15 = molecular target: T6, ERK7/MAPK15 (Homo sapiens, UniProt Q8TD08)
T6 construct: purchased Reaction Biology Corp
T6 sequence (Q8TD08 1-544): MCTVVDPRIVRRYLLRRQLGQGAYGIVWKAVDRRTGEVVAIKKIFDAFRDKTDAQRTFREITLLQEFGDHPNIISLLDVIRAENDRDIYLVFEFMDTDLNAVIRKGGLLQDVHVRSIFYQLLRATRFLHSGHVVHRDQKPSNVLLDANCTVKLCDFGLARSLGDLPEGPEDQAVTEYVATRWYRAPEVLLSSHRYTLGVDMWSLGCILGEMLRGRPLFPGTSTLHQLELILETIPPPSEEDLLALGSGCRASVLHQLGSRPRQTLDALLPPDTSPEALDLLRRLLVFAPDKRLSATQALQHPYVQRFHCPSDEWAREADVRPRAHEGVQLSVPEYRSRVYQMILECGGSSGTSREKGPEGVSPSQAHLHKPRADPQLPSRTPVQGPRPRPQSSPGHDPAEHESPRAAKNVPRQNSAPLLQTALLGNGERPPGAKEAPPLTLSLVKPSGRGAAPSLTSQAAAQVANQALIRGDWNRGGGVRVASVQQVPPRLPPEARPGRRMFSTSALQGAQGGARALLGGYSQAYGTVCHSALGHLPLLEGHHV
Outline: as §1

HIPK4 = molecular target: T7, HIPK4 (Homo sapiens, UniProt Q8NE63)
T7 construct: purchased Reaction Biology Corp
T7 sequence (Q8NE63 1-616): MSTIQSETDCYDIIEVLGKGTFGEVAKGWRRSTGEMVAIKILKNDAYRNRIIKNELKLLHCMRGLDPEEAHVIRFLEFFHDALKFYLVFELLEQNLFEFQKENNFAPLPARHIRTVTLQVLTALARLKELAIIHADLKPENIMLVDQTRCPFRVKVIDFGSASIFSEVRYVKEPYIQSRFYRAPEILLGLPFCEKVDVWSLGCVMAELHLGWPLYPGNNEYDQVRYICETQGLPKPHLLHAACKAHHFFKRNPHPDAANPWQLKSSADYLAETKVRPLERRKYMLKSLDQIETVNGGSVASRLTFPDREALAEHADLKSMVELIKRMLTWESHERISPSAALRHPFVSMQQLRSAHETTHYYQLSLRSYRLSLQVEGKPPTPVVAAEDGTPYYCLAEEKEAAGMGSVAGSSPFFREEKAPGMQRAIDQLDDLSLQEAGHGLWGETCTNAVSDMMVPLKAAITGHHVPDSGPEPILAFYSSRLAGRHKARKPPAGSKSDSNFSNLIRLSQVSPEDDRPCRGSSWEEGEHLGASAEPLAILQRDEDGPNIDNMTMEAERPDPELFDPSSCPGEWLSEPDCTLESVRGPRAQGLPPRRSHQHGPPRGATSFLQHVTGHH
Outline: as §1

CDC7/DBF4 = molecular target: T8, CDC7/DBF4 (Homo sapiens, UniProt O00311)
T8 construct: purchased Reaction Biology Corp
T8 sequence (O00311 whole entry): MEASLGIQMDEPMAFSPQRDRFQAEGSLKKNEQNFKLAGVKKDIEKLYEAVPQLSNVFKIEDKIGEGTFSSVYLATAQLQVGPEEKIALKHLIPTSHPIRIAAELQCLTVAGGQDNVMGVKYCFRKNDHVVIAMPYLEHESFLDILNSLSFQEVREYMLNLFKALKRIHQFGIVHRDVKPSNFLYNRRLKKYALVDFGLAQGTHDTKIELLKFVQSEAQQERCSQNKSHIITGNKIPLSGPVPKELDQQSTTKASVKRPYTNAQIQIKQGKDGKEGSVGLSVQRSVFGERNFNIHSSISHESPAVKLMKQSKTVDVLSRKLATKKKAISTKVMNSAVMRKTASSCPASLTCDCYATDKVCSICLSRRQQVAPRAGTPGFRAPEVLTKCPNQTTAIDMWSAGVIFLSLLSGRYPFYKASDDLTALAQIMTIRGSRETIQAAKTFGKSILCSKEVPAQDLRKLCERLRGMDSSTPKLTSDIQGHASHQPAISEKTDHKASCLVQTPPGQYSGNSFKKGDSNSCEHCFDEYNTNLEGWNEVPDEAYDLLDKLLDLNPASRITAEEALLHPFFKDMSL
T8 sequence (Q9UBU7 whole entry partner): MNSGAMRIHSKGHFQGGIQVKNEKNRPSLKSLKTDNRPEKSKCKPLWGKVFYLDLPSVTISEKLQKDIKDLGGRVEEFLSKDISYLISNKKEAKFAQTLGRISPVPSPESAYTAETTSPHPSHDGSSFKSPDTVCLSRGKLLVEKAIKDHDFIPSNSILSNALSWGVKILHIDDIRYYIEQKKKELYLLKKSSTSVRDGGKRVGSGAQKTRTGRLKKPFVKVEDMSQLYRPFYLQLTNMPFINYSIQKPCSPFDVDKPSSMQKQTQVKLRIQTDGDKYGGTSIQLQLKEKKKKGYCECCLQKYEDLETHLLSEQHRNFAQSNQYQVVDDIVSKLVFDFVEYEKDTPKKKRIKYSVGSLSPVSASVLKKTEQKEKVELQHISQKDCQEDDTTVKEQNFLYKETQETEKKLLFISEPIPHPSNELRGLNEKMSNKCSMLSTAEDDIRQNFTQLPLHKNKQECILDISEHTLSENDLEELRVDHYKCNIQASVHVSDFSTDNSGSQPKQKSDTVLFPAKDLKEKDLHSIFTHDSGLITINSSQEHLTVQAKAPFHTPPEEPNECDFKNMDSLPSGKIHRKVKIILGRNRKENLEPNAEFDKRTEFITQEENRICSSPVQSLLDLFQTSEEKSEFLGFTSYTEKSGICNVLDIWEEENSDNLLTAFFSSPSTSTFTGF
Outline: as §1

CDK9/cyclin T1 = molecular target: T9, CDK9/cyclin T1 (Homo sapiens, UniProt P50750)
T9 construct: purchased Reaction Biology Corp
T9 sequence (P50750 whole entry): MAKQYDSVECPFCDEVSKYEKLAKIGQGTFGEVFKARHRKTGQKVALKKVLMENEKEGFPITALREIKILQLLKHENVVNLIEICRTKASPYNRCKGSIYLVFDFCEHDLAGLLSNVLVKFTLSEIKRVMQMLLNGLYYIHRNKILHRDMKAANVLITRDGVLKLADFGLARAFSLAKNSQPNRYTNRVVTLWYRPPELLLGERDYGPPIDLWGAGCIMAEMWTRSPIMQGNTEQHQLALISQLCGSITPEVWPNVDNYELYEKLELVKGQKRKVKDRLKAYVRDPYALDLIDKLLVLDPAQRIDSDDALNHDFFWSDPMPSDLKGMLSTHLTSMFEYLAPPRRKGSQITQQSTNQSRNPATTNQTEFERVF
T9 sequence (O60563 whole entry partner): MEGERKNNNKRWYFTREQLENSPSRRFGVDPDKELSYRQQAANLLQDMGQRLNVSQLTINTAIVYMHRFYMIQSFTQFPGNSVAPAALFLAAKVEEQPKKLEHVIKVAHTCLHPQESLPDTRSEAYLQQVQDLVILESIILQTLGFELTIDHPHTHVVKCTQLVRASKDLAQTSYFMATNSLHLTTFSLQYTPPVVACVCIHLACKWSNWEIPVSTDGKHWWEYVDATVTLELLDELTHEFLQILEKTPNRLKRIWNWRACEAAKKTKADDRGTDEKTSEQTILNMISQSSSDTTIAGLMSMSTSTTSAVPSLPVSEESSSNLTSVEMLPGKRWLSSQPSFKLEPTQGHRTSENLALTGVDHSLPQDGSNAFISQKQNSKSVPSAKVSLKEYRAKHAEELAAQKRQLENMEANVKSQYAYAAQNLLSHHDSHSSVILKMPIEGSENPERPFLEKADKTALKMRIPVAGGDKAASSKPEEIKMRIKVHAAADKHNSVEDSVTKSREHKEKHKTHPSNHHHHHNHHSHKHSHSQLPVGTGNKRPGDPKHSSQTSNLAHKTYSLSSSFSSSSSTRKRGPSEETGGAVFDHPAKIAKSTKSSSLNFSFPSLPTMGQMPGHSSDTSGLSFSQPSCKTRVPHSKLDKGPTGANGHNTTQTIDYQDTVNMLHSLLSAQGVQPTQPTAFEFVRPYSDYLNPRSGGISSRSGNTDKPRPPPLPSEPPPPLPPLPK
Outline: as §1

[1] = read-out: % Enzyme Activity (relative to DMSO controls) Run 1
[2] = read-out: % Enzyme Activity (relative to DMSO controls) Run 2

T1 sequence (Q13554 whole entry): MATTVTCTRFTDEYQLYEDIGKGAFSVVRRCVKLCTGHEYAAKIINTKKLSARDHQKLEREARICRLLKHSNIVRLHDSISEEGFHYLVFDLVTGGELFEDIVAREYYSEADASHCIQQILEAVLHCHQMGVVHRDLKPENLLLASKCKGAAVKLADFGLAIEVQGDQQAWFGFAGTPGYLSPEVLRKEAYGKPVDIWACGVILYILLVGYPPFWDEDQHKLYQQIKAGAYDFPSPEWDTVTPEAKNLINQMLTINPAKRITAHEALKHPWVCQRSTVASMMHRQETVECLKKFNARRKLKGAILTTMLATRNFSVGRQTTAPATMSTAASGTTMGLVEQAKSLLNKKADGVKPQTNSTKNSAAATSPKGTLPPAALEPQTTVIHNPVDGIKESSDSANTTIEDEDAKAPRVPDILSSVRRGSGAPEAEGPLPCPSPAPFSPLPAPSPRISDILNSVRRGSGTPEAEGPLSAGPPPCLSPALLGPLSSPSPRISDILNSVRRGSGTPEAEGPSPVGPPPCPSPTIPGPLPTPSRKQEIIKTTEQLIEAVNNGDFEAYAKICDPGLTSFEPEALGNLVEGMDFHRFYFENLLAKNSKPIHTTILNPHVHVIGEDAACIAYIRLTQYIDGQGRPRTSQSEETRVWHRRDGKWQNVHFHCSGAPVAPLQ

C=CC(=O)Nc1cccc(Nc2nc(Nc3ccc(OCCOC)c(F)c3)ncc2F)c1 [Compound 2]
inhibition at 3 µM (CAMK2b): 3.89%
remaining activity at 3 µM (CAMK2b; [1]): 96.4%
remaining activity at 3 µM (CAMK2b; [2]): 95.8%
inhibition at 3 µM (STK33): 48.1%
remaining activity at 3 µM (STK33; [1]): 51.2%
remaining activity at 3 µM (STK33; [2]): 52.5%
inhibition at 3 µM (LYN): 27.5%
remaining activity at 3 µM (LYN; [1]): 71.7%
remaining activity at 3 µM (LYN; [2]): 73.2%
inhibition at 3 µM (CDK2/cyclin E): 10%
remaining activity at 3 µM (CDK2/cyclin E; [1]): 87.9%
remaining activity at 3 µM (CDK2/cyclin E; [2]): 92%
inhibition at 3 µM (DDR1): 75.1%
remaining activity at 3 µM (DDR1; [1]): 25.7%
remaining activity at 3 µM (DDR1; [2]): 24.1%
inhibition at 3 µM (ERK7/MAPK15): 35.1%
remaining activity at 3 µM (ERK7/MAPK15; [1]): 63.8%
remaining activity at 3 µM (ERK7/MAPK15; [2]): 66%
inhibition at 3 µM (HIPK4): 6.31%
remaining activity at 3 µM (HIPK4; [1]): 93.6%
remaining activity at 3 µM (HIPK4; [2]): 93.8%
inhibition at 3 µM (CDC7/DBF4): -2.02%
remaining activity at 3 µM (CDC7/DBF4; [1]): 100%
remaining activity at 3 µM (CDC7/DBF4; [2]): 104%
inhibition at 3 µM (CDK9/cyclin T1): 10.3%
remaining activity at 3 µM (CDK9/cyclin T1; [1]): 87.8%
remaining activity at 3 µM (CDK9/cyclin T1; [2]): 91.5%
